Data on 2 compounds can be found in patent US20260109690A1, “HDAC6 INHIBITORS AND METHOD OF THEIR USE” (Baerenkraft Therapeutics, LLC., priority 2024, published 2026).

Data set [1] concerns Tg2576 AD Disease Mice. As to the kind of experiment: Tg2576 study: Morris water maze test. In kind it is in vivo. To be noted: G3 Tg2576 mice, 50 mg/kg then 80 mg/kg from day 36 p.o.; 9th month, probe test. The method, then:
Mice were weighed and randomized into groups. All the test formulations were freshly administered to respective animals of each group as per body weight. Basal behavior of the animals was recorded and analyzed in open field, Y-Maze, and EPM. Post basal behavior, animals were treated with compound I-16 for the duration of 3 months (i.e., from 6 months until 9 months). During the treatment duration, animals were subjected to different behavioral tests such as OFT, Y-maze, and EPM at 7, 8 and 9 months. At the end of experiments (i.e., at 9 months) animals were subjected to Morris water maze test.
Animals were subjected to MWM to test spatial working memory. Animals were subjected to habituation, acquisition, and probe trial phase. On day 0, animals were habituated to the Morris water maze tank filled with water for a duration of 90 seconds. During the acquisition phase from day 1 to 4, animals were allowed to swim or search the hidden platform for a duration of 60 seconds. Animals were subjected to a total of 4 trials from 4 different positions each day. On the day of the probe test, animals were allowed to swim for a duration of 60 seconds without platform and time spent in the target quadrant was recorded. During the acquisition phase, latency to reach the platform was calculated.

A short description of data set [2]: Mice PK studies of compound I-16. The data set is classed as in vivo.
Data set [3] deals with HDAC4 (Homo sapiens, UniProt P56524). The data set is described as follows: HDAC selectivity panel: HDAC4. The data set is classed as biochemical.
Data set [4] deals with T1, HDAC7 (Homo sapiens, UniProt Q8WUI4).
T1 sequence (Q8WUI4 1-952): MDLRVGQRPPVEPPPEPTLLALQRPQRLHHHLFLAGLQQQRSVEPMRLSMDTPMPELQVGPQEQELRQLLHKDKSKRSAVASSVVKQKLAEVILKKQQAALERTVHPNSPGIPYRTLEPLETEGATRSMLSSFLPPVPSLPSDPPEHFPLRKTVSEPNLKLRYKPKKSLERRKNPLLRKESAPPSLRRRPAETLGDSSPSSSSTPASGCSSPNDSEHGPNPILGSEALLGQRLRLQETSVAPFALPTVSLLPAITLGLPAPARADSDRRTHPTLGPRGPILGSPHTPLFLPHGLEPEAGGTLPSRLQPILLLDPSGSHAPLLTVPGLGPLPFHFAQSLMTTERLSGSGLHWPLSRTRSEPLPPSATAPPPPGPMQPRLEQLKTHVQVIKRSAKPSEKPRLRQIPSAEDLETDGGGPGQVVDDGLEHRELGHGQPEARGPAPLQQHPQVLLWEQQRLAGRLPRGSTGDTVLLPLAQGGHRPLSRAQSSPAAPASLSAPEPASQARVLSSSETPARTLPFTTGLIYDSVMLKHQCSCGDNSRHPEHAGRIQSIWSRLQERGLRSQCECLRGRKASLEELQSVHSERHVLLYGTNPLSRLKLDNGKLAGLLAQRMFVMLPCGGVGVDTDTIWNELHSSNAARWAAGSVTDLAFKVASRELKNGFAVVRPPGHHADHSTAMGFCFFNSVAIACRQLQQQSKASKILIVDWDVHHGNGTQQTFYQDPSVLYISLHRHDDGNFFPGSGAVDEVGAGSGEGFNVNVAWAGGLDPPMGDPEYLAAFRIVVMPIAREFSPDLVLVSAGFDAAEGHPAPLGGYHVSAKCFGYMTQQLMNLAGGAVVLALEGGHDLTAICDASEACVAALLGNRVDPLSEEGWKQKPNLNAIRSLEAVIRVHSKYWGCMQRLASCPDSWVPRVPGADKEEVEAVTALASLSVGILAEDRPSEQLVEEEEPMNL
The data set is described as follows: HDAC selectivity panel: HDAC7. In kind it is biochemical.

The test system of data set [5] is acetyl-α-tubulin in SH-SY5Y neuroblastoma cells. The data set is described as follows: Western blot of acetylated alpha-tubulin in SH-SY5Y neuroblastoma cells. In kind it is cell-based. The settings on record: 1 μM and 10 μM, 24 hours. The method, then: SH-SY5Y neuroblastoma cells were seeded at 1,000,000 cells/well of three 6-well plates and incubated for 24 hours. Cells were treated with 2 control and experimental HDAC6 inhibitors at 1 μM and 10 μM for 24-hours. Following treatment, cells were lysed, and proteins extracted for western blot. Proteins were separated by gel electrophoresis and transferred to nitrocellulose membranes. Membranes were blocked and probed with primary Abs overnight.
acetyl-α-tubulin (Lys40)(D20G3); Cell Signaling Technologies, #5335S
GAPDH; Millipore Sigma, #MAB374
Membranes were probed with secondary Abs for 1 hour and then the blots were imaged using the iBright 1500 (ThermoFisher)
(In general: In western blotting, separated proteins are transferred to a membrane and probed.)

Data set [6] deals with B6SJL.SOD1-G93A transgenic mouse model of amyotrophic lateral sclerosis. As to the kind of experiment: ALS mouse model: rotarod test. In kind it is in vivo, mice. The protocol: The Rotarod test was used for motor coordination assessment in mice. Animals were accustomed to the rotarod at 10 rpm for 300 s followed by training for 2 days at accelerated rpm (4-40 for 300 s) with 15 minutes inter trial interval. On the day of the test, animals were subjected to rotarod test at 4-40 rpm for 300 s with 15 minutes inter trial interval. During the training and test, the latency to fall off the rod was recorded. A total of 3 trials were recorded, data was averaged and analyzed.
(§1) Note: Behavioral tests were performed once in two weeks, i.e. at week 10, 12, 14 and 16.
(In general: Falling from the rotarod earlier than controls is read as motor impairment.)

For data set [7] the test system is unchanged. The data set is described as follows: ALS mouse model: wire suspension test (inverted screen test). In kind it is in vivo, mice. The protocol: Wire hang test was used to measure the muscle strength of animals. During the test, the animals were placed on the top of a wire lid of a housing cage. Then the lid was inverted and slightly shaken to ensure the grip of animal on the lid. Latency to fall(s) off the lid was recorded. A total of 3 trials were recorded and averaged to analyze the data. A cutoff time of 90 s was used to end the trial.
as §1

Where [8] appears, read: G4 30 mg/kg (50 mg/kg from day 34) p.o. QD, Week 10.
The mark [9] stands for this setting: G4 30 mg/kg (50 mg/kg from day 34) p.o. QD, Week 12.
[10] abbreviates: G4 30 mg/kg (50 mg/kg from day 34) p.o. QD, Week 14.
Where [11] appears, read: G4 30 mg/kg (50 mg/kg from day 34) p.o. QD, Week 16.

Each structure is given as a SMILES string. Entries after “also recorded” stand apart in the source; their conditions may differ.

Sequence of HDAC4 (P56524 whole entry, species assumed): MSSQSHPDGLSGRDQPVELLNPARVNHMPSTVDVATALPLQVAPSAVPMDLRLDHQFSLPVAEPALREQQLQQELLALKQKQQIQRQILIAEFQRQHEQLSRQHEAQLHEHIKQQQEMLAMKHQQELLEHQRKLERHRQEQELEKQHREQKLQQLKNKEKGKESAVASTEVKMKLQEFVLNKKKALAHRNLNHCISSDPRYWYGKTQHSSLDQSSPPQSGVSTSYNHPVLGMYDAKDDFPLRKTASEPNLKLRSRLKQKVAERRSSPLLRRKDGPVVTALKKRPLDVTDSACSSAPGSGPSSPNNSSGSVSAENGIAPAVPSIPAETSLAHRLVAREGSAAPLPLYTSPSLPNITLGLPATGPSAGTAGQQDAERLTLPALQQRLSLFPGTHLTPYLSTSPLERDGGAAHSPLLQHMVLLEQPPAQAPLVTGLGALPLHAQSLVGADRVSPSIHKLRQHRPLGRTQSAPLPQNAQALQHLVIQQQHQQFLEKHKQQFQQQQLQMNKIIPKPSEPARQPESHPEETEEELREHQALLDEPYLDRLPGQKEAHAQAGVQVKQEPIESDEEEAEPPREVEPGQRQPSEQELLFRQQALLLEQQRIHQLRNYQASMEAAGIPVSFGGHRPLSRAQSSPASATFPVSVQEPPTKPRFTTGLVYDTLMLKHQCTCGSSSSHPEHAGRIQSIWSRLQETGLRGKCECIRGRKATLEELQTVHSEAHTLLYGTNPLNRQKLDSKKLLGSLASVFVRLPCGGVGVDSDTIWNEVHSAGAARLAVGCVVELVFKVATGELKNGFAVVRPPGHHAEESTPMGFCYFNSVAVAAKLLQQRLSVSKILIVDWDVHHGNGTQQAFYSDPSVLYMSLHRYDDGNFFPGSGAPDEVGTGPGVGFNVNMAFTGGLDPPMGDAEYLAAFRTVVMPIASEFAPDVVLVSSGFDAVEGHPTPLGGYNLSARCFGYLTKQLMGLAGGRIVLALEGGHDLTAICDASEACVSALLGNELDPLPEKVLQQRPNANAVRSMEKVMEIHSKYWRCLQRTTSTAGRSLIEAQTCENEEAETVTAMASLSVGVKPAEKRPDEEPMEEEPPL

Regarding `C[C@@H]1CN(Cc2ccc(Nc3nccc(-c4ccc(C(=O)NO)cc4)n3)cc2F)CCO1` [Compound I-16, (R)-4-(2-((3-fluoro-4-((2-methylmorpholino)methyl)phenyl)amino)pyrimidin-4-yl)-N-hydroxybenzamide], in data set [1], the “Morris Water Maze time spent in NW (Target Quadrant)” value worked out at 15.49 ± 1.80 s. For the same compound, in data set [2], the “oral and brain uptake” value is “promising oral, and brain up take”.
As to `CC1CN(Cc2ccc(Nc3nccc(-c4ccc(C(=O)NO)cc4)n3)cc2F)CCO1` (racemic) [Compound I-8, 4-(2-((3-fluoro-4-((2-methylmorpholino)methyl)phenyl)amino)pyrimidin-4-yl)-N-hydroxybenzamide], the results for the IC50 in data set [3] and in data set [4] were 11.1 µM and 12.4 µM, respectively. Besides, the “acetylation of α-tubulin (Western blot)” value in data set [5] is listed as “induce acetylation of α-tubulin in SH-SY5Y neuroblastoma cells in a dose-dependent manner; also recorded: induces acetylation α-tubulin”. Besides, the “Rotarod Test latency to fall” value in data set [6] (G3 15 mg/kg p.o. QD, Week 10) was found to be 137.59 ± 15.62 s; in data set [6] (G3 15 mg/kg p.o. QD, Week 12), 119.19 ± 18.07 s; in data set [6] (G3 15 mg/kg p.o. QD, Week 14) it was 88.63 ± 10.57 s; in data set [6] (G3 15 mg/kg p.o. QD, Week 16), 34.04 ± 12.74 s; in data set [6] (setting [8]), 140 ± 13.47 s; in data set [6] (setting [9]) it was 120.58 ± 13.17 s. For the same compound, the “Rotarod Test latency to fall” value in data set [6] (setting [10]) worked out at 86 ± 16.17 s; in data set [6] (setting [11]), 39.79 ± 20.43 s. Moreover, the “Wire Suspension test latency to fall” value was 49.70 ± 8.667 s in data set [7] (G3 15 mg/kg p.o. QD, Week 10); 37.48 ± 9.92 s in data set [7] (G3 15 mg/kg p.o. QD, Week 12); 19.22 ± 7.18 ^ seconds in data set [7] (G3 15 mg/kg p.o. QD, Week 14); 3.71 ± 0.73 s in data set [7] (G3 15 mg/kg p.o. QD, Week 16); 60.38 ± 10.00 s in data set [7] (setting [8]); 45.46 ± 7.98 s in data set [7] (setting [9]). The “Wire Suspension test latency to fall” value in data set [7] (setting [10]) is 28.13 ± 5.38 ^ seconds; in data set [7] (setting [11]), 6.46 ± 1.58 s. Besides, the “latency to fall of the wire vs. G2” value in data set [7] (G3 15 mg/kg, week 14) was “significant reduction in latency to fall of the wire”; in data set [7] (G4, week 14), “significant reduction in latency to fall of the wire”.
